Reference: patent publication US20100098746A1, “COMPOSITIONS AND METHODS FOR TREATING PERIODONTAL DISEASE COMPRISING CLONIDINE, SULINDAC AND/OR FLUOCINOLONE” (Warsaw Orthopedic, Inc., priority 2008, published 2010)

Columns and labels:
[1] = system: mechanical allodynia, Bennett Model; conditions: subcutaneously at 0.02 mg/kg/day
Description: (§1) The efficacy of a five Month Clonidine/Polymer Drug Depot in the Rat Chronic Constriction Injury Model was evaluated. The animal model was the Bennett Model (Wistar rat). The purpose: To determine whether a five month polymer clonidine-eluting depot can improve pain associated behavioral responses in a rat model of neuropathic pain with an inflammatory component.
(§2) Experimental Design: Four loose chromic gut ligatures, 1 mm apart, were tied around the common sciatic nerve at mid-thigh. Each animal received treatment of test or control article—according to the dosing described in Table 5.
(§3) The present study was conducted for a period of 64 days and employed the following two tests: (1) the Hargreaves test; and (2) the von Frey test. The Hargreaves Tests of Thermal Hyperalgesia were conducted on days 7, 14, 21, 28, 35, 42, 49, 56 and 63. The von Frey monofilament test of mechanical allodynia (performed the day following Thermal testing) were conducted on days-8, 15, 22, 29, 36, 43, 50, 57 and 64.

[2] = system: thermal hyperalgesia, Bennett Model; conditions: subcutaneously at 0.02 mg/kg/day
Description: as §1, §2, §3

murine RAW NO+ cell line = conditions: for inhibitory effects on osteoclast differentiation and resorption: clonidine tested at 100, 10, 1, 0.1 μM, sulindac at 140, 70, 35, 17.5, 8.75 μM, RANK L 30 ng/ml; for lowest inhibitory concentration: osteoclast differentiation and resorption
Description: The purpose of this set of experiments was to narrow the number of periodontal candidates by determining the lowest dose of the drug that inhibits or blocks osteoclast differentiation and/or resorption.
Cell culture complete media was prepared by adding 10% FBS to high glucose DMEM. • 2. A nitric oxide-containing murine RAW NO+ cell line, f frozen in DMSO-containing medium under liquid nitrogen, was used for these assays. • 3. Cells were thawed in a 37° C. water bath and resuspended in complete media (see #1 above). • 4. The cells were plated in a 175 cm^2 polystyrene, white top, non-adherent culture flask at a density of 1×10^4 cells/cm^2 and allowed to settle overnight (Day-1, Table G). • 5. The media was changed approximately 24 hours after the initial plating (Day 0, Table G). • 6. After approximately two days of proliferation, the cells were harvested with a cell scraper, collected in a 50 mL conical tube and centrifuged at 1000 rpm to pellet the cells. • 7. The cell pellets were resuspended in 4 mL complete media, counted with a hemocytometer and plated at a density of 0.125×10^4 cells/0.25 ml/well in a 16 well osteologic assay slide (Day 1, Table G). • 8. The cells were allowed to adhere for 24 hours, the media was removed and fresh differentiation media was prepared that contained complete media+RANK L (30 ng/ml; Pepro Tech #315-11)+/−drug (Day 2, Table G). […] Step 8 was repeated on days 5 and 7 (Table G). • 10. On day 9 the plates were harvested by removing the media, rinsing with dH2O and treated with bleach for 7 minutes. • 11. The bleach was disposed of in the drug waste container and the wells and gaskets were removed from the slide. • 12. The plates were rinsed with H2O 5 times, dried and analyzed for matrix degradation as described below
The clonidine concentrations tested were 100 μM, 10 μM, 1 μM, 0.1 μM and the sulindac concentrations tested were 140 μM, 70 μM, 35 μM, 17.5 μM, and 8.75 μM.

[3] = system: inflammation induced in minipigs; conditions: high dose clonidine (150 μg), injected; days 1, 3 and 4 post-surgery
Description: In a separate experiment, inflammation was induced in minipigs and the minipigs were given clonidine, bupivacaine, or morphine. The surgical site was reviewed for inflammation while the minipigs were anesthesized and on day 4. Scoring of inflammation was reviewed in the area of incision for redness with the following scores: 0—no redness; 1—slightly red limited to area of incision; 2—massive spread redness and swelling with the following scores 0—no swelling; 1—slightly swelling; 3—massive swelling. Redness and swelling were summed up so the minimum score is 0 and maximum score is 4. […] The low dose clonidine given was 75 μg.

[4] = system: mechanical allodynia, Bennett Model; experiment: Rat chronic constriction injury model, von Frey test of mechanical allodynia (sulindac); format: in vivo, Wistar rat; conditions: intraperitoneally at 0.4 mg/kg/day
Description: as §1, with “5” for “five”, “Sulindac/Polymer” for “Clonidine/Polymer”, “sulindac-eluting” for “clonidine-eluting”, “pain.” for “pain with an inflammatory component.”
(§4) Experimental Design: Four loose chromic gut ligatures, 1 mm apart, were tied around the common sciatic nerve at mid-thigh. Each animal received treatment of test or control article—according to the dosing described in Table 10.
(§5) To date, the present study was conducted for a period of 57 days and employed the following two tests: (1) the Hargreaves test on days 7, 14, 21, 28, 35, 42, 49, and 56; and (2) the von Frey test on days 8, 15, 22, 29, 36, 43, 50, and 57.

[5] = system: thermal hyperalgesia, Bennett Model; experiment: Rat chronic constriction injury model, Hargreaves test of thermal hyperalgesia (sulindac); format: in vivo, Wistar rat; conditions: intraperitoneally at 0.4 mg/kg/day
Description: as §1, with “5” for “five”, “Sulindac/Polymer” for “Clonidine/Polymer”, “sulindac-eluting” for “clonidine-eluting”, “pain.” for “pain with an inflammatory component.”
as §4, §5

[6] = system: neuropathic pain, CCI model; experiment: 2-month chronic constriction injury (CCI) model of neuropathic pain (fluocinolone), thermal paw withdrawal latency and mechanical threshold; format: in vivo
Description: A 2-month chronic constriction injury (CCI) model of neuropathic pain was used to evaluate different formulations of a corticosteroid, fluocinolone, encapsulated in bioerodable polymers compared to fluocinolone given subcutaneously (SC). Different formulations as provided in Table B below were evaluated for reducing pain-associated behaviors: Thermal paw withdrawal latency was evaluated at baseline 7, 14, 21, 28, 35, 42, 49, and 56 days post-operatively, while mechanical threshold was evaluated at 8, 15, 22, 29, 36, 43, 50, and 57 days post-operatively. […] The pain of periodontal disease is due to the inflammation. […] Mechanical allodynia was measured using von Frey monofilaments (Stoelting, Wood Dale, Ill.) with varying stiffness (2.0-15.0 g) on Days 1, 8, 15, 22, 29, 36, 43, 50 and 57 as described previously. […] The 50% paw withdrawal threshold response was determined by a sequential increasing and/or decreasing of the stimulus strength (the “up-down method” of Dixon). […] The 50% paw withdrawal threshold was calculated using the formula: 10 (Xf+kd)/10,000, where Xf is the final von Frey filament used (log units), k is a value that analyzes the response pattern (taken from the table published by Chaplan et al.), and d is the mean difference between stimuli (log units). The mean and standard error of the mean (SEM) were determined for each treatment group.

Row | SMILES | pain behavioral response, mechanical allodynia, compared to unloaded polymer depots [1] | pain behavioral response, thermal hyperalgesia, compared to unloaded polymer depots [2] | pain behavioral response (percentage of baseline), thermal hyperalgesia ([2]; unloaded polymer depots 45%) [%] | osteoclast differentiation and bone resorption compared to RANK only treated control wells (murine RAW NO+ cell line; clonidine at 100 μM and 10 μM) | inhibitory effects on osteoclast differentiation and resorption (murine RAW NO+ cell line) | lowest inhibitory concentration (murine RAW NO+ cell line) [µM] | inflammation score (redness + swelling, 0 to 4) [3] | pain behavioral response, mechanical allodynia, compared to unloaded polymer depots (85/15 PLGA Control) [4] | pain behavioral response, thermal hyperalgesia, compared to unloaded polymer depot (85/15 PLGA Control) [5] | pain threshold [6]
1 | Clc1cccc(Cl)c1N=C1NCCN1 [clonidine, 2,6-dichloro-N-2-imidazolidinyldenebenzenamine] | reduced the behavioral response | consistently reduced the behavioral response | 58 | significantly decreased | significant inhibitory effects | 10 | very low | – | – | –
2 | CC1=C(CC(=O)O)c2cc(F)ccc2/C1=C\c1ccc([S+](C)[O-])cc1 (stereo not drawn) [sulindac] | – | – | – | – | significant inhibitory effects | 140.3 | – | reduced the behavioral response | consistently reduced the behavioral response | –
3 | CC1(C)O[C@@H]2C[C@H]3[C@@H]4C[C@H](F)C5=CC(=O)C=C[C@]5(C)[C@@]4(F)[C@@H](O)C[C@]3(C)[C@]2(C(=O)CO)O1 [fluocinolone, 6α-,9α-Difluoro-16 α-hydroxyprednisolone 16,17-acetonide] | – | – | – | – | – | – | – | – | – | reduced pain threshold
